Measurements taken from patent US20230227449A1, “AMIDOPYRIMIDONE DERIVATIVES” (Hoffmann-La Roche Inc., priority 2020, published 2023).
pIC50: −log10 of the molar value. Where a name gives a salt, the structure may show the parent alone.

Target: Recombinant human Mat2a (Homo sapiens, UniProt P31153)
Experiment: Determination of Mat2A activity (384 well absorbance-based assay, Biomol Green)
Format: biochemical
Conditions: 12.5 nM Mat2A, 100 μM ATP and Methionine, 2% DMSO, 120 minutes at RT, absorbance at 635 nm
Procedure: Determination of Mat2A activity
Measurement of Mat2A inhibition is performed in 384 well format absorbance-based assay. Recombinant human Mat2a (12.5 nM) and serial diluted compounds in DMSO (range of concentrations from […] to 508 pM) or controls (DMSO) are incubated for 15 minutes at room temperature (RT) in assay buffer containing 50 mM HEPES pH 7.5, 50 mM KCl, 50 mM MgCl2, 0.01% Tween 20 and 10 mM DTT. The reaction is initiated by the addition of the combined substrates ATP and Methionine, each at a final concentration of 100 μM. Final assay condition are 12.5 nM Mat2A, 100 μM ATP and Methionine Substrates and 2% DMSO. After 120 minutes of incubation at RT, the reaction is stopped by the addition of Biomol Green. The absorbance signal is measured at λ=635 nm with a multiplate reader (BMG Pherastar reader or equivalent) after 30 min of equilibration at RT.

Recombinant human Mat2a, sequence (P31153 whole entry): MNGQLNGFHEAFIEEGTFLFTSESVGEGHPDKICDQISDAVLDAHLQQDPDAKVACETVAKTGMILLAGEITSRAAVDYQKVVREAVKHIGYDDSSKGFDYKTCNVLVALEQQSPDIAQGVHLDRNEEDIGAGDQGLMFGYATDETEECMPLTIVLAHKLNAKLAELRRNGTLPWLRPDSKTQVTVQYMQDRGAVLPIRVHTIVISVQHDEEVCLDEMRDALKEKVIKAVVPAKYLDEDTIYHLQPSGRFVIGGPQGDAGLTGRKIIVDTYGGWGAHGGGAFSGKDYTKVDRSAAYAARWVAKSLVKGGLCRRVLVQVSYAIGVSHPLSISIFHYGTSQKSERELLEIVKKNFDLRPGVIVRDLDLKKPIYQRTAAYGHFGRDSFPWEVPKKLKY

pIC50	SMILES
> 7.89	CCn1nccc1-n1c(=O)nc(N)c2ccc(C3CC3)nc21 [Example 61, 4-amino-7-cyclopropyl-1-(1-ethyl-1H-pyrazol-5-yl)pyrido[2,3-d]pyrimidin-2(1H)-one]
7.70	Cc1ccccc1-n1c(=O)nc(N)c2ccc(Cl)nc21 [Example 62, 4-amino-7-chloro-1-(o-tolyl)pyrido[2,3-d]pyrimidin-2(1H)-one]
7.82	Nc1nc(=O)n(-c2cccc3c2OCC3)c2nc(C3CC3)ccc12 [Example 63, 4-amino-7-cyclopropyl-1-(2,3-dihydrobenzofuran-7-yl)pyrido[2,3-d]pyrimidin-2(1H)-one]
> 7.89	Nc1nc(=O)n(-c2ccccc2Cl)c2nc(C3CC3)ccc12 [Example 64, 4-amino-1-(2-chlorophenyl)-7-cyclopropylpyrido[2,3-d]pyrimidin-2-one]
7.74	COc1c(C#N)cccc1-n1c(=O)nc(N)c2cc(Cl)c(C3CC3)nc21 [Example 65, 3-(4-amino-6-chloro-7-cyclopropyl-2-oxopyrido[2,3-d]pyrimidin-1(2H)-yl)-2-methoxybenzonitrile]
7.89	COc1ncccc1-n1c(=O)nc(N)c2cc(Cl)c(C3CC3)nc21 [Example 66, 4-amino-6-chloro-7-cyclopropyl-1-(2-methoxypyridin-3-yl)pyrido[2,3-d]pyrimidin-2(1H)-one]
7.74	Cc1cc(F)ccc1-n1c(=O)nc(N)c2ccc(C3CC3)nc21 [Example 67, 4-amino-7-cyclopropyl-1-(4-fluoro-2-methylphenyl)pyrido[2,3-d]pyrimidin-2-one]
> 7.89	CCc1cccc(-n2c(=O)nc(N)c3ccc(C4CC4)nc32)c1 [Example 68, 4-amino-7-cyclopropyl-1-(3-ethylphenyl)pyrido[2,3-d]pyrimidin-2(1H)-one]
> 7.89	Cc1cccc(-n2c(=O)nc(N)c3ccc(C4CC4)nc32)c1 [Example 69, 4-amino-7-cyclopropyl-1-(m-tolyl)pyrido[2,3-d]pyrimidin-2(1H)-one]
7.18	Nc1nc(=O)n(-c2cc(F)cc(F)c2)c2nc(C3CC3)ccc12 [Example 70, 4-amino-7-cyclopropyl-1-(3,5-difluorophenyl)pyrido[2,3-d]pyrimidin-2(1H)-one]
> 7.89	COc1cccc(-n2c(=O)nc(N)c3ccc(C4CC4)nc32)c1 [Example 71, 4-amino-7-cyclopropyl-1-(3-methoxyphenyl)pyrido[2,3-d]pyrimidin-2(1H)-one]
> 7.89	COc1cccc(-n2c(=O)nc(N)c3ccc(C4CC4)nc32)n1 [Example 72, 4-amino-7-cyclopropyl-1-(6-methoxypyridin-2-yl)pyrido[2,3-d]pyrimidin-2(1H)-one]
> 7.89	Nc1nc(=O)n(-c2cccc(F)c2F)c2nc(C3CC3)ccc12 [Example 73, 4-amino-7-cyclopropyl-1-(2,3-difluorophenyl)pyrido[2,3-d]pyrimidin-2(1H)-one]
7.80	Nc1nc(=O)n(-c2ccccc2)c2nc(C3CC3)ccc12 [Example 74, 4-amino-7-cyclopropyl-1-phenylpyrido[2,3-d]pyrimidin-2(1H)-one]
7.00	C[C@H](c1cnco1)n1c(=O)nc(N)c2ccc(C3CC3)nc21 [Example 75, 4-amino-7-cyclopropyl-1-(1-(oxazol-5-yl)ethyl)pyrido[2,3-d]pyrimidin-2(1H)-one]
> 7.89	Cc1c(C#N)cccc1-n1c(=O)nc(N)c2ccc(C(F)(F)F)cc21 [Example 76, 3-(4-amino-2-oxo-7-(trifluoromethyl)quinazolin-1(2H)-yl)-2-methylbenzonitrile]
> 7.89	Cc1c(C#N)cccc1-n1c(=O)nc(N)c2ccc(C(F)(F)F)nc21 [Example 77, 3-(4-amino-2-oxo-7-(trifluoromethyl)pyrido[2,3-d]pyrimidin-1(2H)-yl)-2-methylbenzonitrile]
> 7.89	Nc1nc(=O)n(-c2c(F)cccc2F)c2nc(C3CC3)ccc12 [Example 78, 4-amino-7-cyclopropyl-1-(2,6-difluorophenyl)pyrido[2,3-d]pyrimidin-2(1H)-one]
> 7.89	Nc1nc(=O)n(-c2ccccc2F)c2nc(C3CC3)ccc12 [Example 79, 4-amino-7-cyclopropyl-1-(2-fluorophenyl)pyrido[2,3-d]pyrimidin-2(1H)-one]
> 7.89	Nc1nc(=O)n(-c2cccc(F)c2)c2nc(C3CC3)ccc12 [Example 80, 4-amino-7-cyclopropyl-1-(3-fluorophenyl)pyrido[2,3-d]pyrimidin-2(1H)-one]
7.38	CC(C1COC1)n1c(=O)nc(N)c2ccc(C3CC3)nc21 (stereo not drawn) [Example 81, 4-amino-7-cyclopropyl-1-[1-(oxetan-3-yl)ethyl]pyrido[2,3-d]pyrimidin-2-one]

pIC50	SMILES
7.44	CC(c1ccccn1)n1c(=O)nc(N)c2ccc(C3CC3)nc21 (stereo not drawn) [Example 82, 4-amino-7-cyclopropyl-1-(1-pyridin-2-ylethyl)pyrido[2,3-d]pyrimidin-2-one]
7.49	Cc1ncccc1-n1c(=O)nc(N)c2ccc(CC(F)(F)F)cc21 [Example 83, 4-amino-1-(2-methyl-3-pyridyl)-7-(2,2,2-trifluoroethyl)quinazolin-2-one hydrochloride]
6.68	Nc1nc(=O)n(C2CCOCC2)c2nc(C3CC3)ccc12 [Example 84, 4-amino-7-cyclopropyl-1-(tetrahydro-2H-pyran-4-yl)pyrido[2,3-d]pyrimidin-2(1H)-one]
> 7.89	Nc1nc(=O)n(-c2cccnc2Cl)c2nc(C3CC3)ccc12 [Example 85, 4-amino-1-(2-chloropyridin-3-yl)-7-cyclopropylpyrido[2,3-d]pyrimidin-2(1H)-one]
> 7.89	Cc1ncccc1-n1c(=O)nc(N)c2ccc(C3CC3)cc21 [Example 86, 4-amino-7-cyclopropyl-1-(2-methylpyridin-3-yl)quinazolin-2 (1H)-one]
7.70	Cc1ncccc1-n1c(=O)nc(N)c2c(Cl)cc(C(F)(F)F)cc21 [Example 87, 4-amino-5-chloro-1-(2-methylpyridin-3-yl)-7-(trifluoromethyl)quinazolin-2(1H)-one]
> 7.89	Nc1nc(=O)n(C2CCCOC23CC3)c2nc(C3CC3)ccc12 (stereo not drawn) [Example 88, 4-amino-7-cyclopropyl-1-(4-oxaspiro[2.5]octan-8-yl)pyrido[2,3-d]pyrimidin-2(1H)-one]
7.89	Cc1ncsc1-n1c(=O)nc(N)c2ccc(N3C4CCC3CC4)nc21 [Example 90, 4-amino-7-(7-azabicyclo[2.2.1]heptan-7-yl)-1-(4-methylthiazol-5-yl)pyrido[2,3-d]pyrimidin-2-one]
> 7.89	Cc1ccccc1-n1c(=O)nc(N)c2ccc(OC(F)F)nc21 [Example 91, 4-amino-7-(difluoromethoxy)-1-(2-methylphenyl)pyrido[2,3-d]pyrimidin-2-one]
7.43	COc1ccccc1-c1c(=O)nc(N)n2ccc(C(F)(F)F)cc12 [Example 92, 1-amino-4-(2-methoxyphenyl)-6-(trifluoromethyl)-3H-pyrido[1,2-c]pyrimidin-3-one]
7.57	Cc1ncccc1-n1c(=O)nc(N)c2ccc(C3CCOC3)nc21 (stereo not drawn) [Example 93, 4-amino-1-(2-methylpyridin-3-yl)-7-(tetrahydrofuran-3-yl)pyrido[2,3-d]pyrimidin-2 (1H)-one]
7.13	Cc1ccccc1-n1c(=O)nc(N)c2c(C(N)=O)cc(C3CC3)nc21 [Example 94, 4-amino-7-cyclopropyl-2-oxo-1-(o-tolyl)-1,2-dihydropyrido[2,3-d]pyrimidine-5-carboxamide]
7.66	Cc1ccccc1-n1c(=O)nc(N)c2c(C#N)cc(C3CC3)nc21 [Example 95, 4-amino-7-cyclopropyl-2-oxo-1-(o-tolyl)-1,2-dihydropyrido[2,3-d]pyrimidine-5-carbonitrile]
> 7.89	Cc1ccccc1-n1c(=O)nc(N)c2cnc(C3CC3)nc21 [Example 96, 4-amino-7-cyclopropyl-1-(o-tolyl)pyrimido[4,5-d]pyrimidin-2 (1H)-one]
7.32	Nc1nc(=O)n(C2CCNC(=O)C2)c2nc(C3CC3)ccc12 (stereo not drawn) [Example 97, 4-amino-7-cyclopropyl-1-(2-oxopiperidin-4-yl)pyrido[2,3-d]pyrimidin-2 (1H)-one]
6.70	Cc1ncccc1-n1c(=O)nc(O)c2ccc(C3CC3)cc21 [Example 98, 7-cyclopropyl-1-(2-methylpyridin-3-yl)quinazoline-2,4-dione]
7.19	Cc1ccccc1-n1c(=O)nc(O)c2ccc(C3CC3)nc21 [Example 99, 7-cyclopropyl-1-(2-methylphenyl)pyrido[2,3-d]pyrimidine-2,4-dione]
6.46	Cc1ccccc1-n1c(=O)[nH]c(=O)c2ccc(C3CC3)cc21 [Example 100, 7-cyclopropyl-1-(2-methylphenyl)quinazoline-2,4-dione]
7.40	Cc1ncccc1-n1c(=O)nc(O)c2ccc(C3CC3)nc21 [Example 101, 7-cyclopropyl-1-(2-methylpyridin-3-yl)pyrido[2,3-d]pyrimidine-2,4-dione]
7.85	COc1cc(C(F)(F)F)cc2c1c(N)nc(=O)n2-c1cccnc1C [Example 102, 4-amino-5-methoxy-1-(2-methylpyridin-3-yl)-7-(trifluoromethyl)quinazolin-2 (1H)-one]
7.38	COc1c(C#N)cccc1-n1c(=O)nc(N)c2cc(Cl)c(C(C)C)nc21 [Example 105, 3-(4-amino-6-chloro-7-isopropyl-2-oxopyrido[2,3-d]pyrimidin-1 (2H)-yl)-2-methoxybenzonitrile]
